Reference: PubChem BioAssay AID248 (DTP/NCI, 2004)
Values joined by “and” are separate entries in the source; they are usually repeats but may differ in a detail not shown here. Equal entries are not always repeated. Inconclusive results and toxic doses are left out. Cut-off read from the data, not from the text of the source: active = T/C of 150% or more; inactive = T/C below 125%.

Test system: L1210 leukemia ip in BDF1 mice, survival T/C
Test: NCI In Vivo Anticancer Drug Screen. Data for tumor model L1210 Leukemia (intraperitoneal) in B6D2F1 (BDF1) mice
Settings: endpoint: mean survival time, higher = longer survival
Procedure, shortened: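 Antitumor effect is assessed in tumor-bearing animals. Survival in the compound arm is compared with a vehicle-dosed control arm and expressed as their quotient.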

[1] = dose: 25.0 mg/kg/injection, schedule: Q04DX003 (ip), vehicle: saline
[2] = dose: 50.0 mg/kg/injection, schedule: Q04DX003 (ip), vehicle: saline
[3] = dose: 100.0 mg/kg/injection, schedule: Q04DX003 (ip), vehicle: saline
[4] = dose: 100.0 mg/kg/injection, schedule: Q01DX001 (ip), vehicle: saline
[5] = dose: 100.0 mg/kg/injection, schedule: Q01DX009 (ip), vehicle: saline
[6] = dose: 200.0 mg/kg/injection, schedule: Q01DX009 (ip), vehicle: saline
[7] = dose: 400.0 mg/kg/injection, schedule: Q01DX009 (ip), vehicle: saline
[8] = dose: 200.0 mg/kg/injection, schedule: Q04DX003 (ip), vehicle: saline
[9] = dose: 400.0 mg/kg/injection, schedule: Q04DX003 (ip), vehicle: saline
[10] = dose: 100.0 mg/kg/injection, schedule: Q04DX003 (ip), vehicle: saline with Tween-80
[11] = dose: 100.0 mg/kg/injection, schedule: Q04DX003 (ip), vehicle: Klucel (hydroxypropylcellulose) (HPC)
[12] = dose: 200.0 mg/kg/injection, schedule: Q04DX003 (ip), vehicle: Klucel (hydroxypropylcellulose) (HPC)
[13] = dose: 400.0 mg/kg/injection, schedule: Q04DX003 (ip), vehicle: Klucel (hydroxypropylcellulose) (HPC)
[14] = dose: 100.0 mg/kg/injection, schedule: Q04DX002 (ip), vehicle: saline with Tween-80

Measured: T/C

COc1ccc(N=NN(C)C(=O)c2ccccc2)cc1
inactive: dose: 50.0 mg/kg/injection, schedule: Q01DX009 (ip), vehicle: Klucel (hydroxypropylcellulose) (HPC) 108 % of control | dose: 75.0 mg/kg/injection, schedule: Q01DX001 (ip), vehicle: Klucel (hydroxypropylcellulose) (HPC) 112 % of control | dose: 100.0 mg/kg/injection, schedule: Q01DX009 (ip), vehicle: Klucel (hydroxypropylcellulose) (HPC) 120 % of control | dose: 150.0 mg/kg/injection, schedule: Q01DX001 (ip), vehicle: Klucel (hydroxypropylcellulose) (HPC) 111 % of control | dose: 300.0 mg/kg/injection, schedule: Q01DX001 (ip), vehicle: Klucel (hydroxypropylcellulose) (HPC) 107 % of control

CCCCC1CCC(N)CC1 (configuration not stated)
inactive: [1] 105 % of control | [2] 100 % of control | [3] 105 % of control

CCOC(=O)Nc1cc(NC(C)CCCN(CC)CC)c2nc(-c3ccccc3)c(-c3ccccc3)nc2n1 (configuration not stated)
inactive: dose: 50.0 mg/kg/injection, schedule: Q01DX001 (ip), vehicle: saline 93 % of control | [4] 90 % of control

Cc1cc(NCCN(C(C)C)C(C)C)nc(/N=C(\N)Nc2ccc(Cl)c(C(F)(F)F)c2)n1
inactive: dose: 1.25 mg/kg/injection, schedule: Q01DX009 (ip), vehicle: Klucel (hydroxypropylcellulose) (HPC) 109 % of control | dose: 2.5 mg/kg/injection, schedule: Q01DX009 (ip), vehicle: Klucel (hydroxypropylcellulose) (HPC) 104 % of control | dose: 5.0 mg/kg/injection, schedule: Q01DX009 (ip), vehicle: Klucel (hydroxypropylcellulose) (HPC) 107 % of control | dose: 9.37 mg/kg/injection, schedule: Q01DX009 (ip), vehicle: Klucel (hydroxypropylcellulose) (HPC) 98 % of control | dose: 10.0 mg/kg/injection, schedule: Q01DX009 (ip), vehicle: Klucel (hydroxypropylcellulose) (HPC) 102 % of control | dose: 18.75 mg/kg/injection, schedule: Q01DX009 (ip), vehicle: Klucel (hydroxypropylcellulose) (HPC) 96 % of control | dose: 20.0 mg/kg/injection, schedule: Q01DX009 (ip), vehicle: Klucel (hydroxypropylcellulose) (HPC) 98 % of control | dose: 75.0 mg/kg/injection, schedule: Q01DX001 (ip), vehicle: other 103 % of control | dose: 75.0 mg/kg/injection, schedule: Q04DX003 (ip), vehicle: Klucel (hydroxypropylcellulose) (HPC) 100 % of control | dose: 150.0 mg/kg/injection, schedule: Q01DX001 (ip), vehicle: other 98 % of control | dose: 150.0 mg/kg/injection, schedule: Q04DX003 (ip), vehicle: Klucel (hydroxypropylcellulose) (HPC) 100 % of control | dose: 300.0 mg/kg/injection, schedule: Q01DX001 (ip), vehicle: other 110 % of control | dose: 300.0 mg/kg/injection, schedule: Q04DX003 (ip), vehicle: Klucel (hydroxypropylcellulose) (HPC) 105 % of control

CCOc1ccn(C2CCOC2=O)c(=O)n1 (configuration not stated)
inactive: [5] 100 % of control | dose: 100.0 mg/kg/injection, schedule: Q04DX003 (ip), vehicle: alcohol 104 % of control | [6] 97 % of control | dose: 200.0 mg/kg/injection, schedule: Q04DX003 (ip), vehicle: alcohol 102 % of control | [7] 100 % of control | dose: 400.0 mg/kg/injection, schedule: Q04DX003 (ip), vehicle: alcohol 102 % of control

CCc1nc2c(OC)ccc(OC)c2[nH]c1=O
inactive: dose: 100.0 mg/kg/injection, schedule: Q04DX003 (ip), vehicle: other 103 % of control | dose: 200.0 mg/kg/injection, schedule: Q04DX003 (ip), vehicle: other 103 % of control | dose: 400.0 mg/kg/injection, schedule: Q04DX003 (ip), vehicle: other 106 % of control

Nc1ncnc(N)c1NC(=O)c1cccc(C(=O)c2ccccc2)c1
inactive: [3] 101 % of control | [8] 100 % of control | [9] 96 % of control

O=P1(NCCCl)OCCC(O)N1CCCl (configuration not stated)
active: dose: 100.0 mg/kg/injection, schedule: Q01DX001 (ip), vehicle: DMSO 242 % of control | dose: 200.0 mg/kg/injection, schedule: Q01DX001 (ip), vehicle: DMSO 284 % of control | dose: 400.0 mg/kg/injection, schedule: Q01DX001 (ip), vehicle: DMSO 273 % of control

OC(Cc1cc(CC(O)(C(F)(F)F)C(F)(F)F)n(-c2ccccc2)n1)(C(F)(F)F)C(F)(F)F
inactive: [10] 97 % of control | dose: 200.0 mg/kg/injection, schedule: Q04DX003 (ip), vehicle: saline with Tween-80 97 % of control | dose: 400.0 mg/kg/injection, schedule: Q04DX003 (ip), vehicle: saline with Tween-80 95 % of control

COC1C(O)=C2C(=O)OC(C)(O)/C=C/C=C\C=C/C=C/C(c3ccccc3)NC(=O)/C=C/C=C/C=C/C=C/C2(C)C1O (configuration not stated)
inactive: dose: 2.5 mg/kg/injection, schedule: Q01DX009 (ip), vehicle: saline 94 % of control | dose: 5.0 mg/kg/injection, schedule: Q01DX009 (ip), vehicle: saline 100 % of control | dose: 10.0 mg/kg/injection, schedule: Q01DX009 (ip), vehicle: saline 95 % of control

O=COCC(O)COC=O
inactive: dose: 12.5 mg/kg/injection, schedule: Q01DX009 (ip), vehicle: saline 101 % of control | dose: 25.0 mg/kg/injection, schedule: Q01DX009 (ip), vehicle: saline 104 % of control | dose: 50.0 mg/kg/injection, schedule: Q01DX009 (ip), vehicle: saline 87 % of control | [5] 101 % of control | [3] 95 % of control | [8] 90 % of control | [9] 97 % of control

O=C(C[n+]1cccc(CO)c1)c1ccccc1
inactive: dose: 12.5 mg/kg/injection, schedule: Q04DX003 (ip), vehicle: saline 102 % of control | [1] 103 % of control | [2] 100 % of control

COc1cc(NC(=O)Nc2cc(OC)c(OC)c(OC)c2)cc(OC)c1OC
inactive: [11] 96 % of control | [10] 93 % of control | [12] 98 % of control | [13] 91 % of control

COc1ccc(Nc2cccc(Cl)c2)c(C(=O)O)c1
inactive: dose: 40.0 mg/kg/injection, schedule: Q01DX009 (ip), vehicle: saline 100 % of control | dose: 75.0 mg/kg/injection, schedule: Q01DX001 (ip), vehicle: saline 98 % of control | dose: 75.0 mg/kg/injection, schedule: Q01DX009 (ip), vehicle: saline 87 % of control | dose: 150.0 mg/kg/injection, schedule: Q01DX001 (ip), vehicle: saline 90 % of control | dose: 150.0 mg/kg/injection, schedule: Q01DX009 (ip), vehicle: saline 87 % of control

O=C(Nc1cccc([N+](=O)[O-])c1)c1ccc(C(=O)Nc2cccc([N+](=O)[O-])c2)cc1
inactive: dose: 100.0 mg/kg/injection, schedule: Q04DX002 (ip), vehicle: Klucel (hydroxypropylcellulose) (HPC) 98 % of control | dose: 200.0 mg/kg/injection, schedule: Q04DX002 (ip), vehicle: Klucel (hydroxypropylcellulose) (HPC) 91 % of control | dose: 400.0 mg/kg/injection, schedule: Q04DX002 (ip), vehicle: Klucel (hydroxypropylcellulose) (HPC) 86 % of control

NCCSc1ccccc1
inactive: dose: 25.0 mg/kg/injection, schedule: Q04DX002 (ip), vehicle: saline with Tween-80 92 % of control | dose: 50.0 mg/kg/injection, schedule: Q04DX002 (ip), vehicle: saline with Tween-80 101 % of control | [14] 96 % of control and 114 % of control

CSc1nc(N=[N+]=[N-])n(C)n1
inactive: [14] 95 % of control | dose: 200.0 mg/kg/injection, schedule: Q04DX002 (ip), vehicle: saline with Tween-80 95 % of control | dose: 400.0 mg/kg/injection, schedule: Q04DX002 (ip), vehicle: saline with Tween-80 92 % of control

O=C1CCCCC1(CCc1ccncc1)CCc1ccncc1
inactive: dose: 44.0 mg/kg/injection, schedule: Q01DX Z (ip), vehicle: methylcellulose (MC) 96 % of control | dose: 66.0 mg/kg/injection, schedule: Q01DX Z (ip), vehicle: methylcellulose (MC) 102 % of control | dose: 100.0 mg/kg/injection, schedule: Q01DX Z (ip), vehicle: methylcellulose (MC) 109 % of control

NCc1nc(C(=O)O)cs1
inactive: [4] 110 % of control | [5] 91 % of control | [3] 116 % of control | dose: 200.0 mg/kg/injection, schedule: Q01DX001 (ip), vehicle: saline 102 % of control | [6] 87 % of control | [8] 112 % of control | dose: 400.0 mg/kg/injection, schedule: Q01DX001 (ip), vehicle: saline 112 % of control | [7] 86 % of control | [9] 96 % of control

Cc1c(Cl)ccc2c(=O)c(C(=O)O)c[nH]c12
inactive: [11] 95 % of control | [12] 103 % of control | [13] 97 % of control
